Measured values taken from US8603975B2, “Cyclic peptide compounds” (priority 2007, dated 2013).
*1 amine or outer side, *2 acyl side, *3 side chain or, on linkers, in order; H or OH if unused. Where a SMILES comes first, the peptide text is derived from it. [ ]: non-standard residue; d: D form. The star is where a group is joined. X1 = C[C@H](COC(=O)N(C)c1ccccn1)C[C@@H](C(=O)[*:2])N(C)[*:1]; X2 = COCCN(CCOC)C(=O)OC[C@@H](C)C[C@@H](C(=O)[*:2])N(C)[*:1]; X4 = C[C@H](COC(=O)N(C)c1cccnc1)C[C@@H](C(=O)[*:2])N(C)[*:1]; X3 = C[C@H](COC(=O)N1CCN(C)CC1)C[C@@H](C(=O)[*:2])N(C)[*:1]; X6 = C[C@H](COC(=O)N1CCOCC1)C[C@@H](C(=O)[*:2])N(C)[*:1]; NMe(dihydroBmt) = CCCC[C@@H](C)[C@@H](O)[C@H](NC)C(=O)O; X7 = C[C@H](COC(=O)[*:3])C[C@@H](C(=O)[*:2])N(C)[*:1]; MeBmt = C/C=C/C[C@@H](C)[C@@H](O)[C@H](NC)C(=O)O; NMeL = CN[C@@H](CC(C)C)C(=O)O; X8 = CN(c1cnn(CCN2CCOCC2)c1)*; NMeV = CN[C@H](C(=O)O)C(C)C; Sar = CNCC(=O)O

Target: HCV replicon
Type: cell-based, hepatitis C virus
Settings: HCV replicon cells, D-MEM with 5% fetal bovine serum, luciferase activity after two more days of cultivation, 50% enzyme activity level to control (DMSO only)
Description: It is thought that the replication mechanism of the subgenomic HCV RNA in these cell lines is extremely similar to the replication of full length HCV RNA genome in hepatic cells infected with HCV.
The inhibitory activity of the test compounds against the replication of HCV replicon was evaluated by quantifying the activity of luciferase, a reporter gene product encoded in the replicon system reported by Yokota et al., EMBO J 4: 602-608 (2003). The enzyme assay was carried out according to the technical manual of the Steady-Glo(trade mark) luciferase assay system (Promega). The replicon assay was carried out with the modified method reported by Lohmann et al., Science 285: 110 (1999). The details are described in the following.
6×10^3 HCV replicon cells in D-MEM medium containing 5% fetal bovine serum were seeded in each well of a 96-well microtiter plate (Corning Inc.). After the cells were incubated at 37° C. for 16 hours in 5% CO2, the test compound was added.
After cultivation for two more days, the culture medium was removed and 25 μl of Glo Lysis buffer was added to each well and incubated for 5 minutes. Allowing lysis to occur, 25 μl of Steady-Glo(trade mark) assay reagent was added to each well. After incubation for 5 minutes, the luminescence was measured with a luminometer, Mithras LB940 (BERTHOLD TECHNOLOGIES GmbH & Co.KG) following the manufacturer's instructions.
The luciferase activities in replicon cells treated at each concentrations of the compound were employed for the calculation of EC50 value of the each compound, which gave the compound concentration indicating 50% enzyme activity level to the control (no drug group, containing only DMSO).

C/C=C/C[C@@H](C)[C@@H](O)[C@H]1C(=O)N[C@@H]([C@@H](C)O)C(=O)N(C)CC(=O)N(C)[C@@H](CC(C)C)C(=O)N[C@@H](CC(C)C)C(=O)N(C)[C@@H](CC(C)C)C(=O)N[C@@H](C)C(=O)N[C@H](C)C(=O)N(C)[C@@H](C[C@H](C)COC(=O)N2CCOCC2)C(=O)N[C@@H](CC(C)C)C(=O)N(C)[C@@H](C(C)C)C(=O)N1C [Ex 1] (cyclo([MeBmt]T[Sar][NMeL]L[NMeL]A[dA][X6]L[NMeV])) and C/C=C/C[C@@H](C)[C@@H](O)[C@H]1C(=O)N[C@@H]([C@@H](C)O)C(=O)N(C)CC(=O)N(C)[C@@H](CC(C)C)C(=O)N[C@@H](CC(C)C)C(=O)N(C)[C@@H](CC(C)C)C(=O)N[C@@H](C)C(=O)N[C@H](C)C(=O)N(C)[C@@H](C[C@H](C)COC(=O)N2CCN(C)CC2)C(=O)N[C@@H](CC(C)C)C(=O)N(C)[C@@H](C(C)C)C(=O)N1C [Ex 8] (cyclo([MeBmt]T[Sar][NMeL]L[NMeL]A[dA][X3]L[NMeV])) are within 1.5-fold of each other in “HCV replicon replication inhibitory activity: EC50” value: 0.15 µg/mL for the first, 0.16 µg/mL for the second.

Going from C/C=C/C[C@@H](C)[C@@H](O)[C@H]1C(=O)N[C@@H]([C@@H](C)O)C(=O)N(C)CC(=O)N(C)[C@@H](CC(C)C)C(=O)N[C@@H](CC(C)C)C(=O)N(C)[C@@H](CC(C)C)C(=O)N[C@@H](C)C(=O)N[C@H](C)C(=O)N(C)[C@@H](C[C@H](C)COC(=O)N(CCOC)CCOC)C(=O)N[C@@H](CC(C)C)C(=O)N(C)[C@@H](C(C)C)C(=O)N1C [Ex 10] (cyclo([MeBmt]T[Sar][NMeL]L[NMeL]A[dA][X2]L[NMeV])) to C/C=C/C[C@@H](C)[C@@H](O)[C@H]1C(=O)N[C@@H]([C@@H](C)O)C(=O)N(C)[C@H](COC)C(=O)N(C)[C@@H](CC(C)C)C(=O)N[C@@H](CC(C)C)C(=O)N(C)[C@@H](CC(C)C)C(=O)N[C@@H](C)C(=O)N[C@H](C)C(=O)N(C)[C@@H](C[C@H](C)COC(=O)N(C)CCOC)C(=O)N[C@@H](CC(C)C)C(=O)N(C)[C@@H](C(C)C)C(=O)N1C [Ex 84], the “HCV replicon replication inhibitory activity: EC50” value falls from 0.18 µg/mL to 0.053 µg/mL (3.4-fold).

C/C=C/C[C@@H](C)[C@@H](O)[C@H]1C(=O)N[C@@H]([C@@H](C)O)C(=O)N(C)CC(=O)N(C)[C@@H](CC(C)C)C(=O)N[C@@H](CC(C)C)C(=O)N(C)[C@@H](CC(C)C)C(=O)N[C@@H](C)C(=O)N[C@H](C)C(=O)N(C)[C@@H](C[C@H](C)COC(=O)N(C)c2cnn(CCN3CCOCC3)c2)C(=O)N[C@@H](CC(C)C)C(=O)N(C)[C@@H](C(C)C)C(=O)N1C [Ex 36] (cyclo([MeBmt]T[Sar][NMeL]L[NMeL]A[dA][X7](X8)L[NMeV])) and C/C=C/C[C@@H](C)[C@@H](O)[C@H]1C(=O)N[C@@H]([C@@H](C)O)C(=O)N(C)CC(=O)N(C)[C@@H](CC(C)C)C(=O)N[C@@H](CC(C)C)C(=O)N(C)[C@@H](CC(C)C)C(=O)N[C@@H](C)C(=O)N[C@H](C)C(=O)N(C)[C@@H](C[C@H](C)COC(=O)N(C)c2cccnc2)C(=O)N[C@@H](CC(C)C)C(=O)N(C)[C@@H](C(C)C)C(=O)N1C [Ex 39] (cyclo([MeBmt]T[Sar][NMeL]L[NMeL]A[dA][X4]L[NMeV])) are within 1.5-fold of each other in “HCV replicon replication inhibitory activity: EC50” value: 0.09 µg/mL for the first, 0.12 µg/mL for the second.

Going from C/C=C/C[C@@H](C)[C@@H](O)[C@H]1C(=O)N[C@@H]([C@@H](C)O)C(=O)N(C)[C@H](C)C(=O)N(C)[C@@H](CC(C)C)C(=O)N[C@@H](CC(C)C)C(=O)N(C)[C@@H](CC(C)C)C(=O)N[C@@H](C)C(=O)N[C@H](C)C(=O)N(C)[C@@H](C[C@H](C)COC(=O)N2CCC(C)(OCC)CC2)C(=O)N[C@@H](CC(C)C)C(=O)N(C)[C@@H](C(C)C)C(=O)N1C [Ex 124] to C/C=C/C[C@@H](C)[C@@H](O)[C@H]1C(=O)N[C@@H]([C@@H](C)O)C(=O)N(C)[C@H](C)C(=O)N(C)[C@@H](CC(C)C)C(=O)N[C@@H](CC(C)C)C(=O)N(C)[C@@H](CC(C)C)C(=O)N[C@@H](C)C(=O)N[C@H](C)C(=O)N(C)[C@@H](C[C@H](C)COC(=O)N2CCSCC2)C(=O)N[C@@H](CC(C)C)C(=O)N(C)[C@@H](C(C)C)C(=O)N1C [Ex 130], the “HCV replicon replication inhibitory activity: EC50” value falls from 0.056 µg/mL to 0.031 µg/mL (1.8-fold).

First: C/C=C/C[C@@H](C)[C@@H](O)[C@H]1C(=O)N[C@@H]([C@@H](C)O)C(=O)N(C)[C@H](C)C(=O)N(C)[C@@H](CC(C)C)C(=O)N[C@@H](CC(C)C)C(=O)N(C)[C@@H](CC(C)C)C(=O)N[C@@H](C)C(=O)N[C@H](C)C(=O)N(C)[C@@H](C[C@H](C)COC(=O)N(C)CC(F)(F)F)C(=O)N[C@@H](CC(C)C)C(=O)N(C)[C@@H](C(C)C)C(=O)N1C [Ex 145]
Second: C/C=C/C[C@@H](C)[C@@H](O)[C@H]1C(=O)N[C@@H]([C@@H](C)O)C(=O)N(C)[C@H](COC)C(=O)N(C)[C@@H](CC(C)C)C(=O)N[C@@H](CC(C)C)C(=O)N(C)[C@@H](CC(C)C)C(=O)N[C@@H](C)C(=O)N[C@H](C)C(=O)N(C)[C@@H](C[C@H](C)COC(=O)N2CC[C@H](OC)C2)C(=O)N[C@@H](CC(C)C)C(=O)N(C)[C@@H](C(C)C)C(=O)N1C [Ex 151]
The “HCV replicon replication inhibitory activity: EC50” value of the first is 1.6-fold lower: 0.022 µg/mL for the first, 0.035 µg/mL for the second.

With CCCC[C@@H](C)[C@@H](O)[C@H]1C(=O)N[C@@H]([C@@H](C)O)C(=O)N(C)CC(=O)N(C)[C@@H](CC(C)C)C(=O)N[C@@H](CC(C)C)C(=O)N(C)[C@@H](CC(C)C)C(=O)N[C@@H](C)C(=O)N[C@H](C)C(=O)N(C)[C@@H](C[C@H](C)COC(=O)N(C)c2ccccn2)C(=O)N[C@@H](CC(C)C)C(=O)N(C)[C@@H](C(C)C)C(=O)N1C [Ex 249] (cyclo([NMe(dihydroBmt)]T[Sar][NMeL]L[NMeL]A[dA][X1]L[NMeV])) the “HCV replicon replication inhibitory activity: EC50” value was 0.07 µg/mL.
